Tests used:
Type in all cases: cell-based
Parameters in all cases: unit not given here
Conditions in all cases: Isosensitest agar, 10^4 CFU/spot
[1] = test system: P. aeruginosa PU21 (A8101028); assay: MIC by agar-dilution, P. aeruginosa PU21 (A8101028)
Description: (§1) The following results were obtained for representative compounds on a standard in vitro test system using Isosensitest agar medium. The antibacterial activity is described in terms of the minimum inhibitory concentration (MlC) determined by the agar-dilution technique with an inoculum size of 10^4 CFU/spot.

[2] = test system: Ent. cloacae P99 (A8401054); assay: MIC by agar-dilution, Ent. cloacae P99 (A8401054)
Description: as §1

[3] = test system: Serr. marcesens (A8421003); assay: MIC by agar-dilution, Serr. marcesens (A8421003)
Description: as §1

Pr. morganii (A8433001) = assay: MIC by agar-dilution, Pr. morganii (A8433001)
Description: as §1

Kleb. oxytoca (A8395055) = assay: MIC by agar-dilution, Kleb. oxytoca (A8395055)
Description: as §1

E. coli DCO (A8341098) = assay: MIC by agar-dilution, E. coli DCO (A8341098)
Description: as §1

[4] = test system: St. aureus 147N (A8601052); assay: MIC by agar-dilution, St. aureus 147N (A8601052)
Description: as §1

S. dublin (A8369001) = assay: MIC by agar-dilution, S. dublin (A8369001)
Description: as §1

[5] = test system: Strep. pyogenes (A681018); assay: MIC by agar-dilution, Strep. pyogenes (A681018)
Description: as §1

Substance “7-[2-(2-Aminothiazol-4-yl)-2-((Z)-1-carboxy-1-methylethoxyimino)acetamido]- 3-(8-bromo-6,7-dihydroxy-3-oxo-tetrahydroisoquinolin-2-ylmethyl)ceph-3-em-4-carboxylic acid [Example 8]” has an MIC [1] of 0.008, an MIC [2] of 0.125 and an MIC [3] of 0.06. The MIC (Pr. morganii (A8433001)) was 0.25, the MIC (Kleb. oxytoca (A8395055)) was 0.015 and the MIC (E. coli DCO (A8341098)) was 0.008. For the same substance, the MIC [4] was 8, the MIC (S. dublin (A8369001)) was 0.03 and the MIC [5] was 0.06.

Source: patent publication US5219848A, “Cephem compounds” (ICI Pharma, priority 1989, dated 1993)
